Experimental data from BindingDB's records for doi:10.1126/science.2551039 (UniversitÄT Heidelberg, 1989).
Values joined by “and” are separate entries in the source; they are usually repeats but may differ in a detail not shown here. Identical values can stand only once.

What was measured:
[1] = target: T1, Gamma-aminobutyric acid receptor subunit alpha-1 (Homo sapiens, UniProt P14867)
T1 sequence (P14867 whole entry): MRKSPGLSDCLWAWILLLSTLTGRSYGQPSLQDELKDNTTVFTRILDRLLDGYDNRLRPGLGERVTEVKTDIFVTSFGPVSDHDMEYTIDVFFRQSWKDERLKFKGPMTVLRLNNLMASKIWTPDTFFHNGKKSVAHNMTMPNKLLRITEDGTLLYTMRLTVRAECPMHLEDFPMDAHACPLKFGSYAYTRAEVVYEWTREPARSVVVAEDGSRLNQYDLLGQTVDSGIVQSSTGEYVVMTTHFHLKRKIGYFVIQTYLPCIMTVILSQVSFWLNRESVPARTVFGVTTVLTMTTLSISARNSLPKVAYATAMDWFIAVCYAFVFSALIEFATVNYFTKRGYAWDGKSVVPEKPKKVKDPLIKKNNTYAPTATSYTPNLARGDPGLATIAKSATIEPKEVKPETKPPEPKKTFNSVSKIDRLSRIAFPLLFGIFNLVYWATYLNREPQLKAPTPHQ

[2] = target: T2, Gamma-aminobutyric acid receptor subunit alpha-3 (Homo sapiens, UniProt P34903)
T2 sequence (P34903 whole entry): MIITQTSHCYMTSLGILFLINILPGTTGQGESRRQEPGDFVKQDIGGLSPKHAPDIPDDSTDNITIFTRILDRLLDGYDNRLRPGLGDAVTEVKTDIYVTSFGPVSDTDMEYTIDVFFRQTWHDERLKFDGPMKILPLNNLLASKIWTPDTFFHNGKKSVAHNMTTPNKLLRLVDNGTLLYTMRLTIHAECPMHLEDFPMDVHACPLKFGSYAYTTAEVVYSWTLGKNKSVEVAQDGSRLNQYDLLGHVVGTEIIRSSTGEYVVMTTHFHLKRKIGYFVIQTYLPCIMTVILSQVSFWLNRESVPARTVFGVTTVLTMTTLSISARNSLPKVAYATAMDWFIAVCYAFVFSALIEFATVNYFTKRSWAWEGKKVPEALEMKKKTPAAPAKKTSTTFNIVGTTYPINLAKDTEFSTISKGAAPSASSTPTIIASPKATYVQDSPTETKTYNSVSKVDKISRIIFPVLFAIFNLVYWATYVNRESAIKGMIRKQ

[3] = target: T3, Gamma-aminobutyric acid receptor subunit alpha-2 (Homo sapiens, UniProt P47869)
T3 sequence (P47869 whole entry): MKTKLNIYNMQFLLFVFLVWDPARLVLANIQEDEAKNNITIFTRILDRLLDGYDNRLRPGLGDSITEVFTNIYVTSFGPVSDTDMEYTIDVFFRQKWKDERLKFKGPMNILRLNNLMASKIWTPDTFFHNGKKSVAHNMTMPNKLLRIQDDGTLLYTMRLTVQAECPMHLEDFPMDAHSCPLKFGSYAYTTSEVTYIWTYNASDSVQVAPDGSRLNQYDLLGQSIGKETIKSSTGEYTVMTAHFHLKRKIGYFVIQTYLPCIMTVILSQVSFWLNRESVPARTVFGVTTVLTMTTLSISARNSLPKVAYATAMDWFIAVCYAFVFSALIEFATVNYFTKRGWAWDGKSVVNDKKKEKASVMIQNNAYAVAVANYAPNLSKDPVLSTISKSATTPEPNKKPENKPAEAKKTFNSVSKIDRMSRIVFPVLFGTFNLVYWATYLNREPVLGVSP

| Compound | Ki [1] | Ki [2] | Ki [3] |
| --- | --- | --- | --- |
| Cc1nnc2ccc(-c3cccc(C(F)(F)F)c3)nn12 | 0.405 µM and 0.108 µM | 1.79 µM and 1.62 µM | 2 µM and 1.74 µM |
| COC(=O)c1cc2c(cn1)[nH]c1ccccc12 | 0.00078 µM | 0.0041 µM | 0.0029 µM |
| O=C1CN=C(c2ccccc2Cl)c2cc([N+](=O)[O-])ccc2N1 [5-(2-chlorophenyl)-7-nitro-1,3-dihydro-2H-1,4-benzodiazepin-2-one] | 0.00127 µM | 0.002 µM | 0.0017 µM |
| O=C1CN=C(c2ccccc2F)c2cc(Cl)ccc2N1CC(F)(F)F [NSC_93250] | – | 0.205 µM | 0.236 µM |
| CCc1c(C(=O)OC)ncc2[nH]c3cc(OC)c(OC)cc3c12 [NSC_104999] | 0.0053 µM | 0.0106 µM | 0.0144 µM |
